Our source for the IC50 values is publication PMC2248166, “Quantitative peptide binding motifs for 19 human and mouse MHC class I molecules derived using positional scanning combinatorial peptide libraries” (Immunome Research, 2008).

Each structure is given as a SMILES string. Where a SMILES comes first, the peptide text is derived from it.

In this assay the target is HLA B*1501 (Homo sapiens, UniProt P01889, A329T/A93T/A95T/C349S/D201E/D98Y/E187L/E204Q/E69M/E70A/K202T/N87E/Q94N/R155S/R180W/S121R/S35A/S48A/V306I/V36M/Y140S/Y91S). As to the kind of experiment: biochemical. The assay is classed as binding.

By IC50 is commonly meant the concentration at which inhibition is half-maximal. Low readings indicate greater potency, high ones weaker potency. For the molecule `CC(C)C[C@H](NC(=O)[C@H](Cc1c[nH]cn1)NC(=O)[C@@H](NC(=O)[C@H](Cc1ccccc1)NC(=O)[C@H](Cc1ccc(O)cc1)NC(=O)[C@H](CS)NC(=O)[C@H](Cc1ccc(O)cc1)NC(=O)[C@H](CC(C)C)NC(=O)CN)[C@@H](C)O)C(=O)O` [3102.0832] (H-GLYCYFTHL-OH), the concentration for half-maximal inhibition (IC50) was found to be 6.9 nM.
With `CC[C@H](C)[C@H](NC(=O)[C@@H](N)CCCCN)C(=O)N[C@@H](CCCCN)C(=O)N[C@@H](Cc1c[nH]cn1)C(=O)N[C@@H](CCCCN)C(=O)NCC(=O)N[C@@H](CCSC)C(=O)N[C@@H](CO)C(=O)N[C@@H](Cc1ccccc1)C(=O)O` [3102.0851] (H-KIKHKGMSF-OH) the figure was 47 nM.
`CC[C@H](C)[C@H](NC(=O)[C@H](CCC(=O)O)NC(=O)[C@@H](N)CCC(=O)O)C(=O)N[C@@H](CO)C(=O)N[C@H](C(=O)N[C@@H](CO)C(=O)N[C@@H](CC(C)C)C(=O)N[C@@H](CO)C(=O)N[C@@H](Cc1ccccc1)C(=O)O)[C@@H](C)O` [3102.0958] (H-EEISTSLSF-OH) showed an IC50 of 2.1 nM.
On to `CSCC[C@H](NC(=O)[C@@H](N)CC(C)C)C(=O)N[C@@H](CC(N)=O)C(=O)N[C@@H](CC(N)=O)C(=O)N[C@@H](CC(C)C)C(=O)N[C@@H](CC(=O)O)C(=O)N[C@H](C(=O)N[C@@H](CC(C)C)C(=O)N[C@@H](Cc1ccccc1)C(=O)O)[C@@H](C)O` [3102.0836] (H-LMNNLDTLF-OH), for which the IC50 was 86 nM.
The molecule `CSCC[C@H](NC(=O)[C@H](Cc1c[nH]cn1)NC(=O)[C@H](CS)NC(=O)[C@@H](NC(=O)[C@H](CC(N)=O)NC(=O)[C@H](CC(N)=O)NC(=O)[C@@H](NC(=O)[C@H](CO)NC(=O)[C@@H](N)C(C)C)C(C)C)C(C)C)C(=O)O` [3102.0880] (H-VSVNNVCHM-OH) had an IC50 of 14 nM.
Take `CC[C@H](C)[C@H](NC(=O)[C@H](CO)NC(=O)[C@@H](N)CCSC)C(=O)N[C@H](C(=O)N[C@@H](CO)C(=O)N[C@@H](Cc1ccccc1)C(=O)N[C@@H](Cc1ccccc1)C(=O)N1CCC[C@H]1C(=O)N[C@@H](Cc1ccccc1)C(=O)O)[C@@H](C)CC` [3102.0947] (H-MSIISFFPF-OH): it took 0.17 nM to reach half-maximal inhibition (IC50). Against the preceding molecule, the IC50 is about 82-fold lower.
With `CC[C@H](C)[C@H](NC(=O)[C@H](CS)NC(=O)[C@H](CO)NC(=O)[C@@H](NC(=O)[C@H](CS)NC(=O)[C@H](CO)NC(=O)[C@H](CCSC)NC(=O)[C@@H](N)CCSC)[C@@H](C)CC)C(=O)N[C@@H](Cc1ccccc1)C(=O)O` [3102.0850] (H-MMSCISCIF-OH) the figure was 7.6 nM.
With `CC[C@H](C)[C@H](NC(=O)[C@H](CS)NC(=O)[C@H](CCCNC(=N)N)NC(=O)[C@H](Cc1c[nH]cn1)NC(=O)[C@H](CC(C)C)NC(=O)[C@@H](N)CC(C)C)C(=O)N[C@@H](Cc1ccc(O)cc1)C(=O)N[C@@H](Cc1c[nH]cn1)C(=O)N[C@@H](Cc1ccc(O)cc1)C(=O)O` [3102.0866] (H-LLHRCIYHY-OH) the figure was 43 nM.
In turn, `CC[C@H](C)[C@H](NC(=O)[C@H](CO)NC(=O)[C@H](CC(C)C)NC(=O)[C@H](CC(C)C)NC(=O)[C@@H](N)CC(C)C)C(=O)N[C@@H](CC(N)=O)C(=O)N[C@@H](CO)C(=O)N[C@@H](CO)C(=O)N[C@@H](Cc1ccccc1)C(=O)O` [3102.1035] (H-LLLSINSSF-OH) yielded an IC50 of 0.88 nM.
The figure for `CSCC[C@H](NC(=O)[C@@H](N)CCCNC(=N)N)C(=O)N[C@@H](CC(N)=O)C(=O)N[C@H](C(=O)N[C@@H](Cc1ccccc1)C(=O)N[C@@H](CC(N)=O)C(=O)NCC(=O)N[C@@H](Cc1c[nH]cn1)C(=O)N[C@@H](CC(C)C)C(=O)O)C(C)C` [3102.0797] (H-RMNVFNGHL-OH) is 28 nM; for `CSCC[C@H](NC(=O)[C@H](C)NC(=O)[C@H](CCCCN)NC(=O)[C@H](Cc1ccccc1)NC(=O)[C@@H](NC(=O)[C@@H](N)CC(N)=O)C(C)C)C(=O)N[C@@H](CCC(=O)O)C(=O)N[C@H](C(=O)N[C@@H](Cc1ccccc1)C(=O)O)[C@@H](C)O` [3102.0887] (H-NVFKAMETF-OH) it is 23 nM.
For `CC[C@H](C)[C@H](NC(=O)[C@H](CC(N)=O)NC(=O)[C@H](C)NC(=O)[C@H](CCCNC(=N)N)NC(=O)CNC(=O)[C@@H](N)CC(C)C)C(=O)N[C@H](C(=O)N[C@@H](Cc1c[nH]cn1)C(=O)N[C@@H](Cc1ccccc1)C(=O)O)[C@@H](C)O` [3102.1006] (H-LGRANITHF-OH), the IC50 is 6.7 nM.
The figure for `CC[C@H](C)[C@H](NC(=O)[C@H](CO)NC(=O)[C@H](CC(C)C)NC(=O)CNC(=O)[C@H](CCC(=O)O)NC(=O)[C@H](CO)NC(=O)[C@H](Cc1ccc(O)cc1)NC(=O)[C@H](CC(C)C)NC(=O)[C@@H](N)CCCNC(=N)N)C(=O)O` [3102.1232] (H-RLYSEGLSI-OH) is 4.5 nM; for `CC(C)C[C@H](NC(=O)[C@@H](N)CC(C)C)C(=O)N[C@@H](CO)C(=O)N[C@@H](CCCNC(=N)N)C(=O)N[C@@H](Cc1ccc(O)cc1)C(=O)N[C@@H](CC(=O)O)C(=O)N[C@@H](CCC(=O)O)C(=O)N[C@@H](Cc1c[nH]cn1)C(=O)N[C@@H](Cc1ccccc1)C(=O)O` [3102.0976] (H-LLSRYDEHF-OH) it is 54 nM; for `CC[C@H](C)[C@H](NC(=O)[C@H](C)NC(=O)[C@@H](N)CC(C)C)C(=O)N1CCC[C@H]1C(=O)N[C@@H](C)C(=O)N[C@H](C(=O)N[C@@H](CCC(=O)O)C(=O)N[C@@H](Cc1ccccc1)C(=O)N[C@@H](Cc1ccccc1)C(=O)O)[C@@H](C)O` [3102.1001] (H-LAIPATEFF-OH) it is 4.2 nM.
The molecule `CC[C@H](C)[C@H](N)C(=O)N[C@H](C(=O)N[C@@H](Cc1ccc(O)cc1)C(=O)N[C@@H](CS)C(=O)N[C@@H](CC(C)C)C(=O)N[C@H](C(=O)N[C@H](C(=O)N[C@@H](Cc1c[nH]cn1)C(=O)N[C@@H](CCSC)C(=O)O)[C@@H](C)O)C(C)C)[C@@H](C)O` [3102.0993] (H-ITYCLVTHM-OH) had an IC50 of 25 nM.
With `CSCC[C@H](N)C(=O)N[C@@H](CO)C(=O)N[C@@H](CO)C(=O)N[C@@H](CO)C(=O)N[C@@H](CCC(N)=O)C(=O)N[C@@H](CC(=O)O)C(=O)N[C@@H](CC(C)C)C(=O)N[C@@H](CO)C(=O)N[C@@H](Cc1ccccc1)C(=O)O` [3102.1286] (H-MSSSQDLSF-OH) the figure was 16 nM; with `CC[C@H](C)[C@H](NC(=O)[C@H](CO)NC(=O)[C@@H](NC(=O)[C@H](CS)NC(=O)[C@@H](NC(=O)[C@H](CO)NC(=O)[C@H](CCCNC(=N)N)NC(=O)[C@H](CCSC)NC(=O)[C@@H](N)CC(C)C)[C@@H](C)CC)C(C)C)C(=O)O` [3102.0838] (H-LMRSICVSI-OH), 63 nM; with `CC[C@H](C)[C@H](NC(=O)[C@H](C)NC(=O)[C@H](CC(N)=O)NC(=O)[C@H](Cc1ccccc1)NC(=O)[C@H](CC(C)C)NC(=O)[C@@H](N)Cc1ccc(O)cc1)C(=O)N[C@@H](CCC(=O)O)C(=O)N[C@H](C(=O)N[C@@H](CCSC)C(=O)O)[C@@H](C)O` [3102.0905] (H-YLFNAIETM-OH), 1.4 nM.
The figure for `CSCC[C@H](NC(=O)[C@H](Cc1c[nH]cn1)NC(=O)[C@H](CCC(=O)O)NC(=O)[C@H](Cc1ccccc1)NC(=O)[C@H](Cc1ccc(O)cc1)NC(=O)CNC(=O)[C@H](CCCNC(=N)N)NC(=O)[C@H](CO)NC(=O)[C@@H](N)CCSC)C(=O)O` [3102.0982] (H-MSRGYFEHM-OH) is 31 nM; for `CSCC[C@H](NC(=O)[C@@H](NC(=O)[C@H](CCC(=O)O)NC(=O)[C@H](CCSC)NC(=O)[C@H](CC(C)C)NC(=O)[C@H](CCSC)NC(=O)[C@H](Cc1ccccc1)NC(=O)[C@@H](NC(=O)[C@H](C)N)C(C)C)[C@@H](C)O)C(=O)O` [3102.0831] (H-AVFMLMETM-OH) it is 26 nM; for `CC(C)C[C@H](N)C(=O)N[C@@H](C)C(=O)N[C@@H](CCCCN)C(=O)N[C@@H](CCCCN)C(=O)N[C@@H](CO)C(=O)N[C@@H](Cc1ccc(O)cc1)C(=O)N[C@H](C(=O)N[C@H](C(=O)N[C@@H](Cc1ccccc1)C(=O)O)C(C)C)C(C)C` [3102.0811] (H-LAKKSYVVF-OH) it is 97 nM.
`CC(C)C[C@H](NC(=O)[C@H](Cc1ccc(O)cc1)NC(=O)[C@H](C)NC(=O)[C@@H](N)CCCCN)C(=O)N[C@@H](Cc1ccc(O)cc1)C(=O)N[C@H](C(=O)N[C@@H](CCC(=O)O)C(=O)N[C@@H](Cc1ccc(O)cc1)C(=O)N[C@@H](Cc1ccccc1)C(=O)O)[C@@H](C)O` [3102.0995] (H-KAYLYTEYF-OH) showed a 50% inhibitory concentration (IC50) of 7.6 nM.
The figure for `CC(C)C[C@H](NC(=O)[C@H](C)NC(=O)[C@@H](NC(=O)[C@H](Cc1ccccc1)NC(=O)[C@H](CS)NC(=O)[C@H](Cc1ccccc1)NC(=O)[C@H](Cc1ccc(O)cc1)NC(=O)[C@@H](NC(=O)[C@@H](N)CC(C)C)[C@@H](C)O)C(C)C)C(=O)O` [3102.1028] (H-LTYFCFVAL-OH) is 29 nM.
With `CC[C@H](C)[C@H](NC(=O)[C@@H](NC(=O)[C@@H](N)CC(C)C)[C@@H](C)CC)C(=O)N[C@@H](CCCCN)C(=O)N[C@@H](CO)C(=O)N[C@@H](CC(=O)O)C(=O)N[C@@H](Cc1c[nH]cn1)C(=O)N[C@@H](CCC(=O)O)C(=O)N[C@@H](Cc1ccccc1)C(=O)O` [3102.0804] (H-LIIKSDHEF-OH) the figure was 1.6 nM; with `CC[C@H](C)[C@H](NC(=O)[C@H](CCSC)NC(=O)[C@@H](N)CCSC)C(=O)N[C@@H](CC(=O)O)C(=O)N[C@@H](CC(=O)O)C(=O)N[C@@H](Cc1ccccc1)C(=O)NCC(=O)N[C@H](C(=O)N[C@@H](C)C(=O)O)[C@@H](C)O` [3102.0898] (H-MMIDDFGTA-OH), 7.6 nM; with `CC[C@H](C)[C@H](NC(=O)[C@@H](NC(=O)[C@@H](N)Cc1ccccc1)[C@@H](C)CC)C(=O)N[C@@H](CCCCN)C(=O)N[C@@H](CO)C(=O)N[C@@H](CO)C(=O)N[C@@H](Cc1ccc(O)cc1)C(=O)N[C@H](C(=O)N[C@@H](Cc1ccccc1)C(=O)O)C(C)C` [3102.0827] (H-FIIKSSYVF-OH), 3.2 nM.
The figure for `CC[C@H](C)[C@H](NC(=O)[C@@H](N)CCSC)C(=O)N[C@@H](CCCCN)C(=O)N[C@@H](CC(N)=O)C(=O)N[C@@H](CC(C)C)C(=O)N[C@H](C(=O)N[C@@H](CCC(N)=O)C(=O)N[C@@H](CC(C)C)C(=O)N[C@@H](Cc1ccccc1)C(=O)O)[C@@H](C)O` [3102.1037] (H-MIKNLTQLF-OH) is 5.7 nM.
